Reference: patent publication US4317912A, “Tetracyclic indole derivatives” (Farmitalia Carlo Erba S.p.A., priority 1979, dated 1982)

Assays:
[1] = tested on: spontaneously hypertensive rats (Okamoto strain); assay: Anti-hypertensive activity in conscious spontaneously hypertensive rats (Okamoto), carotid artery catheter; type: in vivo, rat (spontaneously hypertensive; settings: for Change in blood pressure after treatment, 30' / Change in heart rate after treatment, 30' / Change in blood pressure after treatment, 60' / Change in heart rate after treatment, 60' / Change in blood pressure after treatment, 120' / Change in heart rate after treatment, 120' / Change in blood pressure after treatment, 240' / Change in heart rate after treatment, 240' / Change in blood pressure after treatment, 360' / Change in heart rate after treatment, 360': mean of 6 animals; for Effect on heart rate: oral (Table 4)
Protocol: Blood pressure recordings were made in conscious hypertensive unrestrained rats weighing approximately 300 g, via a catheter cronically inserted into the left common carotid artery. Implantation of arterial cannula was made under sodium pentobarbital anesthesia (50 mg/kg i.p.). A 1 cm long incision was made through the previously shaved ventral surface of the neck and the tissues overlying the trachea parted by blunt dissection to reveal the carotid artery. The polyethylene catheter used was made with PE 50 tubing, previously filled with saline containing 250 I.U./ml heparin. The tip of the cannula was pushed at least 2 cm inside the vessel toward the heart. The cannula was then firmly tied and passed beneath the skin to emerge from a small incision in the back of the neck. During the postoperative period and before the start of each recording session, the cannula was flushed through daily with saline containing heparin (250 U.I./ml). The experiments were performed two days after surgery. Drugs were administered by gastric gavage.

[2] = tested on: spontaneously hypertensive male rats, strain MHS; assay: Anti-hypertensive activity in spontaneously hypertensive rats (MHS), blood pressure and heart rate measured at the tail; type: in vivo, rat (spontaneously hypertensive; settings: MHS rats; for Change in BP, 1st day, 1 hr after dose / Change in HR, 1st day, 1 hr after dose / Change in BP, 1st day, 5 hrs after dose / Change in HR, 1st day, 5 hrs after dose / Change in BP, 4th day, 1 hr after dose / Change in HR, 4th day, 1 hr after dose / Change in BP, 4th day, 5 hrs after dose / Change in HR, 4th day, 5 hrs after dose: mean of 4 animals
Protocol: Four spontaneously hypertensive male rats, strains MHS, weighing 250-300 g for each group were used.
The animals were treated for four consecutive days. Drugs were administered by gastric gavage, suspended in 5% arabic gum (0.2 ml/100 g body weight). Blood pressure (BP) and heart rate (HR) were measured at the tail by BP Recorder W+W. Blood pressure and heart rate were measured on the 1st and 4th day of treatment 1 hour before and 1 and 5 hours after drug administration.
*Data of LD50 from the literature. In Tables 1 and 2 are reported
the results of the study of the activity of compounds 355/1165 and
355/1166 upon the BP and HR (measured indirectly by means of a tail cuff)
of spontaneous hypertensive rats, MHS strain (4 rats each group). The
compounds were given orally, once a day for 4 consecutive days.

[3] = Acute (orientative) oral toxicity in mice; settings: mouse, in vivo
Excerpt: The male mice for each group were orally treated with drugs at different dose levels for the determination of orientative toxicity.

male mice = settings: data of LD50 from the literature; cited from earlier work

Compound: CCOC(=O)C(C#N)CC1CN(C)C2Cc3c[nH]c4cccc(c34)CC12 (stereo not drawn) [355/1166, 2-Cyano-3-[trans-5(10→9)abeo-6-methyl-ergoline-8β]-propionic acid ethyl ester]
- Change in blood pressure after treatment, 30' ([1]; 5 mg/kg os): 0 mmHg
- Change in heart rate after treatment, 30' ([1]; 5 mg/kg os): -20 b/min
- Change in blood pressure after treatment, 60' ([1]; 5 mg/kg os): -3 mmHg
- Change in heart rate after treatment, 60' ([1]; 5 mg/kg os): -20 b/min
- Change in blood pressure after treatment, 120' ([1]; 5 mg/kg os): -15 mmHg
- Change in heart rate after treatment, 120' ([1]; 5 mg/kg os): -35 b/min
- Change in blood pressure after treatment, 240' ([1]; 5 mg/kg os): -18 mmHg
- Change in heart rate after treatment, 240' ([1]; 5 mg/kg os): -15 b/min
- Change in blood pressure after treatment, 360' ([1]; 5 mg/kg os): -10 mmHg
- Change in heart rate after treatment, 360' ([1]; 5 mg/kg os): -20 b/min
- Effectiveness compared with the reference compound (hydralazine) ([1]; 5 mg/kg per os): less effective than the reference compound
- Effect on heart rate [1]: slight bradycardia and never tachicardia
- Change in BP, 1st day, 1 hr after dose ([2]; 5 mg/kg os, 1st day): -8 mmHg
- Change in HR, 1st day, 1 hr after dose ([2]; 5 mg/kg os, 1st day): -25 b/min
- Change in BP, 1st day, 5 hrs after dose ([2]; 5 mg/kg os, 1st day): -20 mmHg
- Change in HR, 1st day, 5 hrs after dose ([2]; 5 mg/kg os, 1st day): -25 b/min
- Change in BP, 4th day, 1 hr after dose ([2]; 5 mg/kg os, 4th day): -22 mmHg
- Change in HR, 4th day, 1 hr after dose ([2]; 5 mg/kg os, 4th day): -35 b/min
- Change in BP, 4th day, 5 hrs after dose ([2]; 5 mg/kg os, 4th day): -26 mmHg
- Change in HR, 4th day, 5 hrs after dose ([2]; 5 mg/kg os, 4th day): -20 b/min
- Effect on BP ([2]; 5 mg/kg per os): lowers BP at each recording session, but its effect is more pronounced after the 4th dose
- Effectiveness compared with α-methyl-DOPA ([2]; 5 mg/kg per os): 20 times
- Hypotensive effect compared with Hydralazine, after 4th administration ([2]; 1st and 5th hours after 4th administration, 5 mg/kg per os vs Hydralazine 3 mg/kg per os): greater hypotensive effect
- Activity compared with Hydralazine, 1st day ([2]; 1st day, 5 mg/kg per os vs Hydralazine 3 mg/kg per os): less pronounced activity than Hydralazine
- LD50 at 168 h [3]: > 800 mg/kg

Compound: CN1CC(CCC(N)=O)C2Cc3cccc4[nH]cc(c34)CC21 (stereo not drawn) [355/1226, Trans-5(10→9)abeo-6-methyl-ergoline-8β-propionamide]
- Change in blood pressure after treatment, 30' ([1]; 3 mg/kg os): -19 mmHg
- Change in heart rate after treatment, 30' ([1]; 3 mg/kg os): -33 b/min
- Change in blood pressure after treatment, 60' ([1]; 3 mg/kg os): -28 mmHg
- Change in heart rate after treatment, 60' ([1]; 3 mg/kg os): -30 b/min
- Change in blood pressure after treatment, 120' ([1]; 3 mg/kg os): -40 mmHg
- Change in heart rate after treatment, 120' ([1]; 3 mg/kg os): -23 b/min
- Change in blood pressure after treatment, 240' ([1]; 3 mg/kg os): -32 mmHg
- Change in heart rate after treatment, 240' ([1]; 3 mg/kg os): -16 b/min
- Change in blood pressure after treatment, 360' ([1]; 3 mg/kg os): -25 mmHg
- Change in heart rate after treatment, 360' ([1]; 3 mg/kg os): +4 b/min
- Hypotensive activity compared with 355/1165 and 355/1166 ([1]; 3 mg/kg per os): intermediate activity between compound 355/1165 and compound 355/1166
- Effect on heart rate [1]: slight bradycardia and never tachicardia
- Change in BP, 1st day, 1 hr after dose ([2]; 1 mg/kg os, 1st day): -32 mmHg
- Change in HR, 1st day, 1 hr after dose ([2]; 1 mg/kg os, 1st day): -20 b/min
- Change in BP, 1st day, 5 hrs after dose ([2]; 1 mg/kg os, 1st day): -27 mmHg
- Change in HR, 1st day, 5 hrs after dose ([2]; 1 mg/kg os, 1st day): +3 b/min
- Change in BP, 4th day, 1 hr after dose ([2]; 1 mg/kg os, 4th day): -21 mmHg
- Change in HR, 4th day, 1 hr after dose ([2]; 1 mg/kg os, 4th day): -5 b/min
- Change in BP, 4th day, 5 hrs after dose ([2]; 1 mg/kg os, 4th day): -42 mmHg
- Change in HR, 4th day, 5 hrs after dose ([2]; 1 mg/kg os, 4th day): -13 b/min
- Change in BP, 1st day, 1 hr after dose ([2]; 3 mg/kg os, 1st day): -47 mmHg
- Change in HR, 1st day, 1 hr after dose ([2]; 3 mg/kg os, 1st day): -20 b/min
- Change in BP, 1st day, 5 hrs after dose ([2]; 3 mg/kg os, 1st day): -57 mmHg
- Change in HR, 1st day, 5 hrs after dose ([2]; 3 mg/kg os, 1st day): -10 b/min
- Change in BP, 4th day, 1 hr after dose ([2]; 3 mg/kg os, 4th day): -40 mmHg
- Change in HR, 4th day, 1 hr after dose ([2]; 3 mg/kg os, 4th day): -40 b/min
- Change in BP, 4th day, 5 hrs after dose ([2]; 3 mg/kg os, 4th day): -42 mmHg
- Change in HR, 4th day, 5 hrs after dose ([2]; 3 mg/kg os, 4th day): -45 b/min
- Effect on BP ([2]; 1 and 3 mg/kg per os): decreases BP; especially with the higher dose, this effect is remarkable and long lasting
- Antihypertensive activity compared with Hydralazine, 1st day ([2]; 1st day, 355/1165 2 mg/kg, 355/1226 3 mg/kg per os vs Hydralazine 3 mg/kg per os): more marked antihypertensive activity
- Antihypertensive effect compared with Hydralazine, 4th day ([2]; 4th day, 355/1165 2 mg/kg, 355/1226 3 mg/kg per os vs Hydralazine 3 mg/kg per os): even greater effect
- Tolerance after repeated administration ([2]; four days, 355/1165 2 mg/kg, 355/1226 3 mg/kg, 355/1225 and 355/1229 5 mg/kg per os): tolerance does not occur after repeated administration
- Activity compared with α-methyl-DOPA ([2]; 355/1165 2 mg/kg, 355/1226 3 mg/kg per os): 50 times
- LD50 at 168 h [3]: > 800 mg/kg

Compound: C[C@](N)(Cc1ccc(O)c(O)c1)C(=O)O [α-Methyl-DOPA, reference compound]
- Change in BP, 1st day, 1 hr after dose ([2]; 30 mg/kg os, 1st day): -27 mmHg
- Change in HR, 1st day, 1 hr after dose ([2]; 30 mg/kg os, 1st day): +33 b/min
- Change in BP, 1st day, 5 hrs after dose ([2]; 30 mg/kg os, 1st day): -4 mmHg
- Change in HR, 1st day, 5 hrs after dose ([2]; 30 mg/kg os, 1st day): +36 b/min
- Change in BP, 4th day, 1 hr after dose ([2]; 30 mg/kg os, 4th day): -2 mmHg
- Change in HR, 4th day, 1 hr after dose ([2]; 30 mg/kg os, 4th day): +50 b/min
- Change in BP, 4th day, 5 hrs after dose ([2]; 30 mg/kg os, 4th day): 0 mmHg
- Change in HR, 4th day, 5 hrs after dose ([2]; 30 mg/kg os, 4th day): +20 b/min
- Change in BP, 1st day, 1 hr after dose ([2]; 100 mg/kg os, 1st day): -6 mmHg
- Change in HR, 1st day, 1 hr after dose ([2]; 100 mg/kg os, 1st day): +73 b/min
- Change in BP, 1st day, 5 hrs after dose ([2]; 100 mg/kg os, 1st day): -22 mmHg
- Change in HR, 1st day, 5 hrs after dose ([2]; 100 mg/kg os, 1st day): +40 b/min
- Change in BP, 4th day, 1 hr after dose ([2]; 100 mg/kg os, 4th day): -19 mmHg
- Change in HR, 4th day, 1 hr after dose ([2]; 100 mg/kg os, 4th day): +70 b/min
- Change in BP, 4th day, 5 hrs after dose ([2]; 100 mg/kg os, 4th day): -31 mmHg
- Change in HR, 4th day, 5 hrs after dose ([2]; 100 mg/kg os, 4th day): +20 b/min
- Effect on heart rate ([2]; oral, all doses treated (Table 2)): no effect on heart rate
- LD50 (orientative toxicity in mice) (male mice): 5300 mg/kg per os
